In patent publication US20260083708A1, “IL-17 MODULATORS AND USES THEREOF” (NNOCARE PHARMA INC., priority 2024, published 2026):

Tests used:
IL-17AA and IL-17RA = biological target: T1, IL-17AA and IL-17RA (Homo sapiens, UniProt Q16552); assay: Competitive inhibition of human IL-17AA and IL-17RA binding (HTRF); details: recombinant IL-17AA (His-tag) and IL-17RA (hFc-tag); read-out: IC50 for Inhibiting IL-AA/IL-RA Binding
T1 construct: purchased Sino Biological 12047-H07B (IL-17AA); 10895-H02H (IL-17RA)
T1 sequence (Q16552 24-155): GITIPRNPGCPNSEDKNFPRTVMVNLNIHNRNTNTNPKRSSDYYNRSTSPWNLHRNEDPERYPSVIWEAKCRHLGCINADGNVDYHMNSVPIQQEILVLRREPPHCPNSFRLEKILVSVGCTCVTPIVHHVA
In short: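 His-IL-17AA (1 nM) premixed 1 h with anti-His-Tb (0.4 nM), and Fc-IL-17RA (1 nM) with anti-IgG-d2 (1 μg/mL); these are pre-mix levels. Compounds, diluted from 10 μM, preincubated 2 h RT with IL-17AA mix; IL-17RA mix then added, 20 min. 665/615 ratio vs no-compound and no-IL-17AA controls; IC50 by 4-parameter fit.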

[1] = tested on: IL-17AA-induced IL-17 signaling pathway; assay: Inhibition of IL-17AA-induced IL-17 signaling pathway in HEK-Blue IL-17 reporter cells (SEAP); assay type: cell-based; details: Homo sapiens; HEK-Blue IL-17 cells, IL-17AA 2.5 ng/mL, 20 hours; read-out: IC50 for Inhibiting IL-AA Signaling
In short: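 HEK-Blue IL-17 cells (HEK293 expressing human IL-17RA/RC, ACT1 and NF-κB/AP-1-driven SEAP), 10,000/well, pre-incubated with compound (serial dilution from 10 μM) for 1 h at 37 °C, then stimulated with IL-17AA at 2.5 ng/mL final for 20 h. SEAP in supernatant read with Quanti-Blue at 620 nm; IC50 by 4-parameter fit.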

[2] = tested on: IL-17AF-induced IL-17 signaling pathway; assay: Inhibition of IL-17AF-induced IL-17 signaling pathway; assay type: cell-based; details: Homo sapiens; IL-17AF used instead of IL-17AA; read-out: IC50 for Inhibiting IL-AF Signaling
In short: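 HEK293-derived HEK-Blue IL-17 cells (IL-17RA/RC, ACT1, NF-κB/AP-1-driven SEAP) preincubated 1 hour at 37° C with serially diluted compound from 10 μM, then stimulated with IL-17AF for 20 hours. SEAP read colorimetrically at 620 nm; IC50 from 4-parameter fit of % inhibition.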

Structure (SMILES)	IC50 (IL-17AA and IL-17RA)	IC50 [1]	IC50 [2]
CCn1nccc1C(=O)N[C@H](C(=O)Nc1ccc([C@H](C)[C@@H](NC(=O)COC)c2nnc(C3CCN3C)s2)cc1F)C(C1CC1)C1CC1 (stereo partly drawn) [Compound 59, N-((2S)-1,1-dicyclopropyl-3-((2-fluoro-4-((1R,2S)-1-(2-methoxyacetamido)-1-(5-(1-methylazetidin-2-yl)-1,3,4-thiadiazol-2-yl)propan-2-yl)phenyl)amino)-3-oxopropan-2-yl)-1-ethyl-1H-pyrazole-5-carboxamide]	235 nM	946 nM	1550 nM
Cc1nonc1C(=O)N[C@H](C(=O)Nc1ccc([C@H](C)[C@@H](NC(=O)COC2CC2)c2ncnn2CC2CC2)cc1F)C(C1CC1)C1CC1 [Compound 60, N-((S)-1-((4-((1R,2S)-1-(2-cyclopropoxyacetamido)-1-(1-(cyclopropylmethyl)-1H-1,2,4-triazol-5-yl)propan-2-yl)-2-fluorophenyl)amino)-3,3-dicyclopropyl-1-oxopropan-2-yl)-4-methyl-1,2,5-oxadiazole-3-carboxamide]	1.7 nM	3.3 nM	3.9 nM
COCC(=O)N[C@@H](c1ncnn1CCN(C)C)[C@@H](C)c1ccc(NC(=O)[C@@H](NC(=O)c2nonc2C)C(C2CC2)C2CC2)c(F)c1 [Compound 61, N-((S)-1,1-dicyclopropyl-3-((4-((1R,2S)-1-(1-(2-(dimethylamino)ethyl)-1H-1,2,4-triazol-5-yl)-1-(2-methoxyacetamido)propan-2-yl)-2-fluorophenyl)amino)-3-oxopropan-2-yl)-4-methyl-1,2,5-oxadiazole-3-carboxamide]	12 nM	39 nM	74 nM
CCOCC(=O)N[C@@H](c1ncnn1CC1CC1)[C@@H](C)c1ccc(NC(=O)[C@@H](NC(=O)c2nonc2C)C(C2CC2)C2CC2)c(F)c1 [Compound 63, N-((S)-1,1-dicyclopropyl-3-((4-((1R,2S)-1-(1-(cyclopropylmethyl)-1H-1,2,4-triazol-5-yl)-1-(2-ethoxyacetamido)propan-2-yl)-2-fluorophenyl)amino)-3-oxopropan-2-yl)-4-methyl-1,2,5-oxadiazole-3-carboxamide]	2.5 nM	4 nM	8.3 nM
Cc1nonc1C(=O)N[C@H](C(=O)Nc1ccc([C@H](C)[C@@H](NC(=O)COC(F)(F)F)c2ncnn2CC2CC2)cc1F)C(C1CC1)C1CC1 [Compound 64, N-((S)-1,1-dicyclopropyl-3-((4-((1R,2S)-1-(1-(cyclopropylmethyl)-1H-1,2,4-triazol-5-yl)-1-(2-(trifluoromethoxy)acetamido)propan-2-yl)-2-fluorophenyl)amino)-3-oxopropan-2-yl)-4-methyl-1,2,5-oxadiazole-3-carboxamide]	1.1 nM	3.6 nM	5.9 nM
Cc1nonc1C(=O)N[C@H](C(=O)Nc1ccc([C@H](C)[C@@H](NC(=O)COC(F)F)c2ncnn2CC2CC2)cc1F)C(C1CC1)C1CC1 [Compound 65, N-((S)-1,1-dicyclopropyl-3-((4-((1R,2S)-1-(1-(cyclopropylmethyl)-1H-1,2,4-triazol-5-yl)-1-(2-(difluoromethoxy)acetamido)propan-2-yl)-2-fluorophenyl)amino)-3-oxopropan-2-yl)-4-methyl-1,2,5-oxadiazole-3-carboxamide]	0.9 nM	2.8 nM	3.6 nM
CC(=O)N[C@@H](c1ncnn1CC1CC1)[C@@H](C)c1ccc(NC(=O)[C@@H](NC(=O)c2nonc2C)C(C2CC2)C2CC2)c(F)c1 [Compound 67, N-((S)-1-((4-((1R,2S)-1-acetamido-1-(1-(cyclopropylmethyl)-1H-1,2,4-triazol-5-yl)propan-2-yl)-2-fluorophenyl)amino)-3,3-dicyclopropyl-1-oxopropan-2-yl)-4-methyl-1,2,5-oxadiazole-3-carboxamide]	1.1 nM	8 nM	13 nM
Cc1nonc1C(=O)N[C@H](C(=O)Nc1ccc([C@H](C)[C@@H](NC(=O)CC#N)c2ncnn2CC2CC2)cc1F)C(C1CC1)C1CC1 [Compound 70, N-((S)-1-((4-((1R,2S)-1-(2-cyanoacetamido)-1-(1-(cyclopropylmethyl)-1H-1,2,4-triazol-5-yl)propan-2-yl)-2-fluorophenyl)amino)-3,3-dicyclopropyl-1-oxopropan-2-yl)-4-methyl-1,2,5-oxadiazole-3-carboxamide]	3.4 nM	7.5 nM	7.3 nM

The next lines start with the values.

IC50 (IL-17AA and IL-17RA)	IC50 [1]	IC50 [2]	Structure (SMILES)
2.6 nM	6.5 nM	18.4 nM	[2H]C([2H])([2H])n1nccc1C(=O)N[C@H](C(=O)Nc1ccc([C@H](C)[C@@H](NC(=O)CC)c2ncnn2CC2CC2)cc1F)C(C1CC1)C1CC1 [Compound 62, N-((S)-1,1-dicyclopropyl-3-((4-((1R,2S)-1-(1-(cyclopropylmethyl)-1H-1,2,4-triazol-5-yl)-1-propionamidopropan-2-yl)-2-fluorophenyl)amino)-3-oxopropan-2-yl)-1-(methyl-d3)-1H-pyrazole-5-carboxamide]
4.5 nM	5.6 nM	6.4 nM	[2H]C([2H])([2H])OCC(=O)N[C@@H](c1ncnn1CC1CC1)[C@@H](C)c1ccc(NC(=O)[C@@H](NC(=O)c2ccnn2CC)C(C2CC2)C2CC2)c(F)c1 [Compound 68, N-((S)-1,1-dicyclopropyl-3-((4-((1R,2S)-1-(1-(cyclopropylmethyl)-1H-1,2,4-triazol-5-yl)-1-(2-(methoxy-d3)acetamido)propan-2-yl)-2-fluorophenyl)amino)-3-oxopropan-2-yl)-1-ethyl-1H-pyrazole-5-carboxamide]
13 nM	42 nM	74 nM	[2H]C([2H])([2H])n1nccc1C(=O)N[C@H](C(=O)Nc1ccc([C@H](C)[C@@H](NC(=O)CO)c2ncnn2CC2CC2)cc1F)C(C1CC1)C1CC1 [Compound 69, N-((S)-1,1-dicyclopropyl-3-((4-((1R,2S)-1-(1-(cyclopropylmethyl)-1H-1,2,4-triazol-5-yl)-1-(2-hydroxyacetamido)propan-2-yl)-2-fluorophenyl)amino)-3-oxopropan-2-yl)-1-(methyl-d3)-1H-pyrazole-5-carboxamide]
5.3 nM	9.6 nM	13 nM	[2H]C([2H])([2H])OCC(=O)N[C@@H](c1ncnn1CC1CC1)[C@@H](C)c1ccc(NC(=O)[C@@H](NC(=O)c2ccnn2C([2H])([2H])[2H])C(C2CC2)C2CC2)c(F)c1 [Compound 71, N-((S)-1,1-dicyclopropyl-3-((4-((1R,2S)-1-(1-(cyclopropylmethyl)-1H-1,2,4-triazol-5-yl)-1-(2-(methoxy-d3)acetamido)propan-2-yl)-2-fluorophenyl)amino)-3-oxopropan-2-yl)-1-(methyl-d3)-1H-pyrazole-5-carboxamide]
1 nM	1.9 nM	8.5 nM	CCC(=O)N[C@@H](c1ncnn1CC1CC1)[C@@H](C)c1ccc(NC(=O)[C@@H](NC(=O)c2ccnn2CC)C(C2CC2)C2CC2)c(F)c1 [Compound 72, N-((S)-1,1-dicyclopropyl-3-((4-((1R,2S)-1-(1-(cyclopropylmethyl)-1H-1,2,4-triazol-5-yl)-1-propionamidopropan-2-yl)-2-fluorophenyl)amino)-3-oxopropan-2-yl)-1-ethyl-1H-pyrazole-5-carboxamide]
174 nM	153 nM	180 nM	CCC(=O)N[C@@H](c1ncnn1CC1CC1)[C@@H](C)c1ccc(NC(=O)[C@@H](NC(=O)c2ccnn2C2CN(C)C2)C(C2CC2)C2CC2)c(F)c1 [Compound 73, N—((S)-1,1-dicyclopropyl-3-((4-((1R,2S)-1-(1-(cyclopropylmethyl)-1H-1,2,4-triazol-5-yl)-1-propionamidopropan-2-yl)-2-fluorophenyl)amino)-3-oxopropan-2-yl)-1-(1-methylazetidin-3-yl)-1H-pyrazole-5-carboxamide]
5.4 nM	31 nM	61 nM	CCC(=O)N[C@@H](c1ncnn1CC1CC1)[C@@H](C)c1ccc(NC(=O)[C@@H](NC(=O)c2nsnc2C)C(C2CC2)C2CC2)c(F)c1 [Compound 74, N-((S)-1,1-dicyclopropyl-3-((4-((1R,2S)-1-(1-(cyclopropylmethyl)-1H-1,2,4-triazol-5-yl)-1-propionamidopropan-2-yl)-2-fluorophenyl)amino)-3-oxopropan-2-yl)-4-methyl-1,2,5-thiadiazole-3-carboxamide]
